Test results as given in patent US20110086891A1, “Solid Forms of 2-(2,4-Difluorophenyl)-6-(1-(2,6-Difluorophenyl)Ureido)Nicotinamide)” (Vertex Pharmaceuticals Incorporated, priority 2009, published 2011).
≈ marks a conversion by molar mass, not a printed value. Entries after “also recorded” stand apart in the source; their conditions may differ.

Experiments:
Assay type in all cases: physicochemical
[1] = Interconversion studies (slurries in EtOAc, MeOH and water); conditions: ambient conditions
Description: Interconversion studies between the different forms of Compound I described herein were carried out using the general procedure outlined here:
Interconversion studies were conducted in EtOAc, MeOH and water with materials giving XRPD patterns A, P, C and F. Attempts were made to monitor the presence of the different forms of Compound I in the methanol and ethyl acetate interconversion slurries using Raman analysis and XRPD. The presence of the solvents was dominant in the Raman spectra of the slurries. […] After slurrying for 10 days, pattern A was obtained from MeOH. Pattern C was obtained from all samples slurried in EtOAc or water. […] Interconversion data can be found in Tables XVII.

[2] = Relative stability studies: slurrying 1:1 mixtures of forms in 3:1 water:ethanol at various temperatures; conditions: slurry in 3:1 water:ethanol
Description: 1:1 mixtures of Form C and form G of Compound I were slurried in 3:1 water:ethanol at a range of temperatures to determine the relative stability at different temperatures. 5 mg of Form C was mixed with 5 mg of Form G in a glass vial. 1.0 ml of 3:1 water:ethanol was added and the resulting slurry was stirred at 5° C. for 10 days. The resulting solid was isolated by filtration and analysed by XRPD (see FIG. 17).
(§1) The above procedure was repeated at 25, 50 and 80° C.
1:1 mixtures of Form C and Form F were slurried in 3:1 water:ethanol at a range of temperatures to determine the relative stability at different temperatures. […] Ethanol was used in addition to water in order to increase the amount of Compound I in solution and so increase the rate of conversion between forms. Ethanol was chosen as no ethanol solvate of Compound I was known. 10 mg of Form C was mixed with 10 mg of Form F in a glass vial. 2.0 ml of 3:1 water:ethanol was added and the resulting slurry was stirred at 5° C. for 24 hours. Solid was isolated by filtration and analysed by XRPD.
as §1
1:1 mixtures of Form F and Form G were slurried in 3:1 water:ethanol at a range of temperatures to determine the relative stability at different temperatures. 10 mg of Form F was mixed with 10 mg of Form G in a glass vial. 2.0 ml of 3:1 water:ethanol was added and the resulting slurry was stirred at 5° C. for 24 hours. The resulting solid was isolated by filtration and analysed by XRPD. The above procedure was repeated at 25, 50 and 70° C. 70° C. was used instead of 80° C. in an attempt to reduce degradation.

[3] = Solubility analysis (in water); conditions: 25 °C, thermodynamic from solid
Description: This was measured by suspending enough Compound I in 0.25 mL of solvent (water) to give a maximum final concentration of ≧10 mg/ml of the parent free form of the compound. The suspension was equilibrated at 25° C. for 24 hrs followed by a pH check and filtration through a glass fibre C96 well plate. The filtrate was then diluted down by a factor of 101. Quantitation was by HPLC (Table XI) with reference to a standard, diluted and undiluted tests were injected. The solubility was calculated by integration of the peak area found at the same retention time as the peak maximum in the standard injection. If there is sufficient solid in the filter plate the XRPD is normally checked for phase changes, hydrate formation, amorphization, crystallization, etc.

[4] = Gravimetric vapour sorption (GVS) studies
Description: All samples were run on a Hiden IGASorp moisture sorption analyzer running CFRSorp software. Sample sizes were typically 10 mg. A moisture absorption-desorption isotherm was performed as outlined below in Table X (2 scans giving 1 complete cycle). All samples were loaded/unloaded at typical room humidity and temperature (40% RH, 25° C.). All samples were analysed by XRPD post GVS analysis. The standard isotherm was performed at 25° C. at 10% RH intervals over a 0-90% RH range.

[5] = Apparent (non-equilibrium) solubilities of Form C in various solvents; conditions: thermodynamic from solid
Description: Table XIII contains representative apparent (non-equilibrium) solubilities of Form C in various exemplary solvents.
Fifty (50.0) mg of Compound I, Form C was weighed into a small, screw-top vial. The relevant solvent was added in portions until a clear solution was obtained. In several cases, solubilization was aided by heating with a heat gun and then allowed to cool down to rt. The data provided in Table XIII are representative and some variability may occur between lots of a particular sample, e.g., about 10%.

[6] = Stability studies at 40° C./75% RH (physical and chemical stability, XRPD)
From the text: In some embodiments, less than 25% of the solid form of Compound I decomposes, in some embodiments, less than about 20%, less than about 15%, less than about 10%, less than about 5%, less than about 3%, less than about 1%, less than about 0.5% of the form of Compound I decomposes under the conditions specified. In some embodiments, no detectable amount of the solid form of Compound I decomposes. […] In some embodiments, less than 25% of the solid form of Compound I changes into one or more different physical forms when subjected to specified conditions. In some embodiments, less than about 20%, less than about 15%, less than about 10%, less than about 5%, less than about 3%, less than about 1%, less than about 0.5% of the solid form of Compound I changes into one or more different physical forms of Compound I when subjected to specified conditions. In some embodiments, no detectable amount of the solid form of Compound I changes into one or more physically different solid forms of Compound I.

NC(=O)c1ccc(N(C(N)=O)c2c(F)cccc2F)nc1-c1ccc(F)cc1F [Form C, 2-(2,4-difluorophenyl)-6-(1-(2,6-difluorophenyl)ureido)nicotinamide]
relative stability of unsolvated forms [1]: most stable unsolvated form at ambient conditions | relative stability between forms [2]: more stable than Form G at a temperature of 50 °C or above; also recorded: more stable than Form F at 50 and 80 °C | solubility at 24 h [3]: ≥ 0.02 mg/mL | total weight gain from 0 to 90% RH ([4]; 0 to 90% RH, T=25° C.): 0.15% | weight gain up to 60% RH ([4]; up to 60% RH, 25° C.): negligible | solubility ([5]; organic solvent or mixture, apparent, 1,4-dioxane): 100 mg/mL (≈ 247 mM) | solubility ([5]; organic solvent or mixture, apparent, 1-Butanol): 50 mg/mL (≈ 124 mM) | solubility ([5]; organic solvent or mixture, apparent, 2-Butanone): 50 mg/mL (≈ 124 mM) | solubility ([5]; organic solvent or mixture, apparent, 2-Propanol): 50 mg/mL (≈ 124 mM) | solubility ([5]; organic solvent or mixture, apparent, 2-Propyl Acetate): < 20 mg/mL | solubility ([5]; organic solvent or mixture, apparent, Acetone): 50 mg/mL (≈ 124 mM) | solubility ([5]; organic solvent or mixture, apparent, Acetonitrile): 33 mg/mL (≈ 81.6 mM) | solubility ([5]; organic solvent or mixture, apparent, Butyl acetate): 33 mg/mL (≈ 81.6 mM) | solubility ([5]; organic solvent or mixture, apparent, DMSO): 100 mg/mL (≈ 247 mM) | solubility ([5]; organic solvent or mixture, apparent, Dimethylformamide): 100 mg/mL (≈ 247 mM) | solubility ([5]; organic solvent or mixture, apparent, Ethanol): 50 mg/mL (≈ 124 mM) | solubility ([5]; organic solvent or mixture, apparent, Ethyl Acetate): 20 mg/mL (≈ 49.5 mM) | solubility ([5]; organic solvent or mixture, apparent, Heptane): < 20 mg/mL | solubility ([5]; organic solvent or mixture, apparent, Hexafluorophenol): 100 mg/mL (≈ 247 mM) | solubility ([5]; organic solvent or mixture, apparent, Methanol): 100 mg/mL (≈ 247 mM) | solubility ([5]; organic solvent or mixture, apparent, Methyl isobutyl ketone): 50 mg/mL (≈ 124 mM) | solubility ([5]; organic solvent or mixture, apparent, Methylene Chloride): < 20 mg/mL | solubility ([5]; organic solvent or mixture, apparent, N,N-dimethylacetamide): 100 mg/mL (≈ 247 mM) | solubility ([5]; organic solvent or mixture, apparent, Tert-butyl methyl ether): < 20 mg/mL | solubility ([5]; organic solvent or mixture, apparent, Tetrahydrofuran): 20 mg/mL (≈ 49.5 mM) | solubility ([5]; organic solvent or mixture, apparent, Toluene): 20 mg/mL (≈ 49.5 mM) | solubility ([5]; organic solvent or mixture, apparent, cyclohexane): < 20 mg/mL | solubility ([5]; apparent, Water): < 20 mg/mL | results of stability studies as seen by XRPD (before and after spectra) [6]: before and after spectra are similar | time remaining in substantially the same physical form ([6]; 40° C./75% RH): at least two
